Measurements as given in PMC11929074, “An in vitro platform for the enzymatic characterization of the rhomboid protease RHBDL4” (The Journal of Biological Chemistry, 2025).
*1 amine or outer side, *2 acyl side, *3 side chain or, on linkers, in order; H or OH if unused. Where a SMILES comes first, the peptide text is derived from it. [ ]: non-standard residue; d: D form. The star is where a group is joined. Pheol(OBn) = c1ccc(COC[C@H](Cc2ccccc2)N*)cc1; NH(4-phenylbutyl) = c1ccc(CCCCN*)cc1; X1 = C[C@H](N[*:1])C(=O)C(=O)[*:2]

Assays:
[1] = biological target: T1, recombinant human RHBDL4 (Homo sapiens, UniProt Q8TEB9); assay: Inhibition of RHBDL4 proteolysis of IQ6 (FRET-based in vitro assay); assay type: biochemical; conditions: IQ6 substrate; inhibitor pre-incubated with RHBDL4 for 1 h, then reacted with IQ6 for 2 h; triplicate, average ± S.E.M.
T1 construct: The entire RHBDL4 and RHBDL4-S144A cDNAs were subcloned into the pcDNA3.1 vector; 6xHis (C, cleaved yes); made in house; host or cells: Freestyle 293-F cells (transient transfection, pcDNA3.1-HisA)
T1 sequence (Q8TEB9 1-315): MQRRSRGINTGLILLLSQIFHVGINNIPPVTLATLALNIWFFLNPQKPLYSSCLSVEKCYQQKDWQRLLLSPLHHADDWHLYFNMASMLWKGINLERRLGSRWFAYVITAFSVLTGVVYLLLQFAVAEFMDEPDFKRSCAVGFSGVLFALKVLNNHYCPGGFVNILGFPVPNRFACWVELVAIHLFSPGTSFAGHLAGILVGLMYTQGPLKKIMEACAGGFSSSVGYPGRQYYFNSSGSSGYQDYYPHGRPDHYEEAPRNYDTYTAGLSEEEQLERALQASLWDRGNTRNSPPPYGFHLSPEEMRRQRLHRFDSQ
Description: (§1) B, schematic representation of the peptidyl-α-ketoamide scaffold with peptide sequence P5-P1 at the nonprime side and hydrophobic substituent (R) at the prime side. C, schematic representation of the peptidyl-α-ketoamide inhibitor, compound 1a/1b. D, representative inhibition curve derived from measuring rates of RHBDL4 proteolysis of the fluorescent substrate IQ6 with increasing concentrations of compound 1a. E, same as (D), except inhibition curve was derived from using increasing concentrations of compound 1b. […] Reactions were quenched with 1 keLaemmli buffer and loaded on 12% SDS-PAGE gel. Post-transfer membranes were visualized using a fluorescence Cy3 filter and by Western blotting using an α-His antibody. For (A, D, and E), all inhibitors were pre-incubated with RHBDL4 for 1 h and allowed to react with the IQ6 substrate for 2 h.
(§2) B, representative inhibition curve derived from measuring rates of RHBDL4 proteolysis of the fluorescent substrate IQ6 with increasing concentrations of compound 3. C, same as (B), except inhibition curve was derived from using increasing concentrations of compound 4. […] Reactions were quenched with 1 RLaemmli buffer and loaded on 12% SDS-PAGE gel. Post-transfer membranes were visualized using a fluorescence Cy3 filter and by Western blotting using an α-His antibody. E, saturation curve of RHBDL4 using fluorescent substrate, KSp207. For (B and C), all inhibitors were pre-incubated with RHBDL4 for 1 h and allowed to react with the IQ6 substrate for 2 h. […] I assigned them to the substrate KSp207, which is named on the x-axis and in the inset table.
The enzymatic assay was performed as previously described (Arutyunova et al., 2014, ([26])). […] The FRET-based cleavage assay was conducted in a fluorescence multiwell plate reader (SynergyMx, BioTek). Upon excitation at 320 nm, the emission intensity at 400 nm was recorded for 2 h at minimal intervals under shaking conditions and plotted using the GraphPad PRISM software. The initial velocities were defined as the slopes of the curve of the generated product as a function of time. The plots of the generated product against the corresponding substrate concentration were fitted with the Michaelis–Menten equation. Catalytic parameters were extrapolated using GraphPad PRISM. […] The samples were desalted using C18 tips (Rainin), eluted in 80% acetonitrile, and dried down in a vacuum centrifuge prior to mass spectrometry analysis.

[2] = test system: WT RHBDL4 (recombinant, purified); assay: TAMRA-FP competition labelling on recombinant RHBDL4; assay type: binding, human; conditions: in-gel Cy3 fluorescence, compared with inactive RHBDL4-S144A control
Description: as §1, §2

[3] = test system: RHBDL4-GFP in ER-enriched microsomes of HEK293T cells; assay: TAMRA-FP competition label assay in ER-enriched microsomes; assay type: binding, human; conditions: 100 μM compound, 1 h preincubation at 37 °C, then 500 nM TAMRA-FP 2 h at 37 °C; n = 3
Protocol: Figure 6 RHBDL4 inhibition studies in ER-enriched microsomes ER-enriched microsomes were preincubated with 100 μM of compounds or DMSO vehicle control followed by the addition of 500 nM of TAMRA-FP serine hydrolase probe. RHBDL4-GFP was immunoprecipitated with an α-GFP antibody and loaded on SDS-PAGE. TAMRA-FP labeling was analyzed via Cy3 filter followed by Western blotting using α-GFP antibody, n = 3.
ER-enriched microsomes were obtained by hypotonic swelling and centrifugation from Hek293T cells 24 h after transfection. To this end, cells from a subconfluent 15-cm plate were resuspended in isolation buffer (10 mM Hepes-KOH pH 7.4, 1.5 mM MgCl2, 10 mM KCl, EDTA-free complete protease inhibitor cocktail from Roche). After 10 min incubation at 4 °C, cells were lysed by passing six times through a 27-gauge needle. Cellular debris and nuclei were discarded after centrifugation at 1000g for 5 min at 4 °C. The supernatant was spun at 100,000g for 30 min at 4 °C. The membrane pellet was resuspended in 40 μl RM buffer (50 mM Hepes-KOH pH 7.4, 250 mM sucrose, 50 mM KOAc, 2 mM Mg(OAc)2). […] TAMRA-FP-labeling was analyzed in the wet gel with a green light source (535 nm) and a Cy3 filter by detecting fluorescence emission using ImageQuant 800 Fluor CCD imager (Cytiva) followed by Western blotting using an α-GFP antibody (Roche).

| Structure (SMILES) | IC50 [1] [nM] | competition with TAMRA-FP probe (fluorescent signal) [2] | TAMRA-FP labeling of RHBDL4-GFP [3] |
| --- | --- | --- | --- |
| CSCC[C@H](NC(=O)[C@H](CCC(N)=O)NC(C)=O)C(=O)N[C@@H](CCC(=O)O)C(=O)N[C@@H](CO)C(=O)N[C@@H](C)C(=O)C(=O)NCCCCc1ccccc1 [compound 3] (Ac-QMES[X1]-{NH(4-phenylbutyl)}) | 54 ± 13 | reduction in overall fluorescent signal | reduced |
| CSCC[C@H](NC(=O)[C@H](CCC(N)=O)NC(C)=O)C(=O)N[C@@H](CCC(=O)O)C(=O)N[C@@H](CO)C(=O)N[C@@H](C)C(=O)C(=O)N[C@H](COCc1ccccc1)Cc1ccccc1 [compound 4] (Ac-QMES[X1]-{Pheol(OBn)}) | – | reduction in overall fluorescent signal | reduced |
